In ChEMBL document CHEMBL5113521, “Discovery of a Novel Oral Proteasome Inhibitor to Block NLRP3 Inflammasome Activation with Anti-inflammation Activity” (J Med Chem, 2022):
Activity calls are given as the source filed them. The rule behind the calls is not given here.

Columns and labels:
Mus musculus [1] = assay: Anti-colitis activity against DSS-induced ulcerative colitis C57BL/6J mouse assessed as reduction in colon length decrease at 0.125 to 0.5 mg/kg, po administered every 72 hrs for 10 days; format: functional, organism-based; conditions: dose 0.125-0.5 mg/kg, time 10.0 day
Mus musculus [2] = assay: Anti-colitis activity against DSS-induced C57BL/6 mouse model assessed as suppression of DSS induced fecal occult blood at 0.125 to 0.5 mg/kg, po administered every 72 hrs for 10 days; format: functional, organism-based; conditions: dose 0.125-0.5 mg/kg, time 10.0 day
Mus musculus [3] = assay: Anti-colitis activity against DSS-induced ulcerative colitis C57BL/6J mouse model assessed as suppression of DSS induced weight loss at 0.125 to 0.5 mg/kg, po administered every 72 hrs for 10 days; format: functional, organism-based; conditions: dose 0.125-0.5 mg/kg, time 10.0 day
[4] = molecular target: NACHT, LRR and PYD domains-containing protein 3 (Mus musculus) (UniProt Q8R4B8); assay: Inhibition of NLRP3 inflammasome activation in LPS-stimulated mouse J774.A1 cells assessed as blockage of NLRP3-ASC protein-protein interaction at 15 to 60 nM preincubated for 1 hr followed by nigericin stimulation by co-immunoprecipitation assay; format: cell-based; conditions: dose 15-60 nM
Sequence of NACHT, LRR and PYD domains-containing protein 3 (Mus musculus) (Q8R4B8 whole entry, the tested form may be a part): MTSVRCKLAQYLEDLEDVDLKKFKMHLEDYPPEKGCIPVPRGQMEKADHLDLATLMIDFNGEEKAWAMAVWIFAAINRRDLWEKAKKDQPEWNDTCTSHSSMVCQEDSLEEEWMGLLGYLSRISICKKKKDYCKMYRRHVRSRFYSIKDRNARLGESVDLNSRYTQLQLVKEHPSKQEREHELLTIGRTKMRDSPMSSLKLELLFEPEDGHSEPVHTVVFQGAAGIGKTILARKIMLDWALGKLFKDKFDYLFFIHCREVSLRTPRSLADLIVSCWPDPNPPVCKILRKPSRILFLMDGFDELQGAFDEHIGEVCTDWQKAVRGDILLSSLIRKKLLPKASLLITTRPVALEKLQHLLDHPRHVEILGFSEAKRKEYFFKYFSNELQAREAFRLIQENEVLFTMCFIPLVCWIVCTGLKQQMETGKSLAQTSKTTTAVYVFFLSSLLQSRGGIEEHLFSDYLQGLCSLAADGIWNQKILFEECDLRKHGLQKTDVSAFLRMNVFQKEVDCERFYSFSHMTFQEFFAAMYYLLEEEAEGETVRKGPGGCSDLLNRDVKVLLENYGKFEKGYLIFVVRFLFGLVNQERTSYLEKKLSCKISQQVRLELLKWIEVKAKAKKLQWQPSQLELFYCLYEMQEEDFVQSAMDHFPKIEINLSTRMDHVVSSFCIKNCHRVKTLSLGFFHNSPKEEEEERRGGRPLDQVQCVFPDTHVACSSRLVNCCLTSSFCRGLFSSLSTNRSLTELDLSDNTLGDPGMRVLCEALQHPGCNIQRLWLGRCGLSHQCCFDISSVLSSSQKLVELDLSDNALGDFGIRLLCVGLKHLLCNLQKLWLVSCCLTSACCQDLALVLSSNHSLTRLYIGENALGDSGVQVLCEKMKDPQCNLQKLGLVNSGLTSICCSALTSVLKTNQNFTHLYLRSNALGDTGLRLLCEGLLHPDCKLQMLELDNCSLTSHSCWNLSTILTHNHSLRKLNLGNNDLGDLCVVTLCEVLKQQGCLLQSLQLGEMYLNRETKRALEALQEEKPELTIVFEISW

[5] = Cytotoxicity against HEK293 cells incubated for 24 hrs; format: toxicity, cell-based; conditions: human
HEK293 = assay: Cytotoxicity against HEK293 cells at less than 20 uM incubated for 24 hrs; format: toxicity, cell-based; conditions: human, hek293, 24 h
[6] = molecular target: NACHT, LRR and PYD domains-containing protein 3 (Mus musculus) (UniProt Q8R4B8); assay: Inhibition of NLRP3 inflammasome activation in LPS-primed mouse BMDM cells assessed as reduction in IL-1 beta release preincubated for 1 hr followed by nigericin stimulation and measured after 1 hr by ELISA; format: cell-based; conditions: dose 7.5-60 nM, time 2.0 hrs, DDE = dose-dependent effect
[7] = molecular target: NLR family CARD domain-containing protein 4 (Mus musculus) (UniProt Q3UP24); assay: Inhibition of NLRC4 inflammasome activation in LPS-primed mouse BMDM cells assessed as reduction in IL-1beta secretion at 7.5 to 60 nM preincubated for 1 hr followed by FLA-ST Ultrapure stimulation by ELISA; format: cell-based; conditions: dose 7.5-60 nM
Sequence of NLR family CARD domain-containing protein 4 (Mus musculus) (Q3UP24 whole entry, the tested form may be a part): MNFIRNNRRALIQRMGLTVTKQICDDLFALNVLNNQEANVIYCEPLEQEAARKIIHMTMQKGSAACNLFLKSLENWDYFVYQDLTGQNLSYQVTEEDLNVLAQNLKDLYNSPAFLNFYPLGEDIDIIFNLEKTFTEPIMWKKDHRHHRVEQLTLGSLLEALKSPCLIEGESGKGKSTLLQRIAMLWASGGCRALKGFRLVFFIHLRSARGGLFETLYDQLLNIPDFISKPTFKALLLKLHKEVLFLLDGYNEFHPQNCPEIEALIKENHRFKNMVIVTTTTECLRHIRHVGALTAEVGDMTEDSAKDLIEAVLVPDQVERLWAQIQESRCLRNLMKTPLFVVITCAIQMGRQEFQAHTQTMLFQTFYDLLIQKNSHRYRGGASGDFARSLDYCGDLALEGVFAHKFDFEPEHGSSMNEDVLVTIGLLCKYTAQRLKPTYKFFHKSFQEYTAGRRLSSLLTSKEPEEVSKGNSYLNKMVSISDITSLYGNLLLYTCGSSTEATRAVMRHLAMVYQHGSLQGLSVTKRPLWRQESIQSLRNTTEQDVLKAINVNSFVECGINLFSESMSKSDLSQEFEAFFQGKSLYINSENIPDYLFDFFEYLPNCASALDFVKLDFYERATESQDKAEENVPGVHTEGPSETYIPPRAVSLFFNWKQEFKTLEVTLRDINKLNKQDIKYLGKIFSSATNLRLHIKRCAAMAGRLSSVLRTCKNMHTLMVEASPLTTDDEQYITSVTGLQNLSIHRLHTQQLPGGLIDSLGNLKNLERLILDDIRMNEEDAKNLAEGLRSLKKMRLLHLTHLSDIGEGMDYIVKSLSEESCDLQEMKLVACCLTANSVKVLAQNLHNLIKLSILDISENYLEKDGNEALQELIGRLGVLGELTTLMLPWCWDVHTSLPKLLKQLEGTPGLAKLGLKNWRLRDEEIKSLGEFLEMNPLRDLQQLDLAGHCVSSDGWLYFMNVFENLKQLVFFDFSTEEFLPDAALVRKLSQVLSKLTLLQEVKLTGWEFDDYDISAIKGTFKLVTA

[8] = molecular target: NLR family CARD domain-containing protein 4 (Mus musculus) (UniProt Q3UP24); assay: Inhibition of NLRC4 inflammasome activation in LPS-primed mouse BMDM cells assessed as reduction in IL-1beta secretion at 7.5 to 60 nM preincubated for 1 hr followed by poly (dA/dT) stimulation by ELISA; format: cell-based; conditions: dose 7.5-60 nM
[9] = molecular target: T1, Interferon-inducible protein AIM2 (Mus musculus) (UniProt Q91VJ1); assay: Inhibition of AIM2 inflammasome activation in LPS-primed mouse BMDM cells assessed as reduction in IL-1beta secretion at 7.5 to 60 nM preincubated for 1 hr followed by FLA-ST Ultrapure stimulation by ELISA; format: cell-based; conditions: dose 7.5-60 nM
T1 sequence (whole entry): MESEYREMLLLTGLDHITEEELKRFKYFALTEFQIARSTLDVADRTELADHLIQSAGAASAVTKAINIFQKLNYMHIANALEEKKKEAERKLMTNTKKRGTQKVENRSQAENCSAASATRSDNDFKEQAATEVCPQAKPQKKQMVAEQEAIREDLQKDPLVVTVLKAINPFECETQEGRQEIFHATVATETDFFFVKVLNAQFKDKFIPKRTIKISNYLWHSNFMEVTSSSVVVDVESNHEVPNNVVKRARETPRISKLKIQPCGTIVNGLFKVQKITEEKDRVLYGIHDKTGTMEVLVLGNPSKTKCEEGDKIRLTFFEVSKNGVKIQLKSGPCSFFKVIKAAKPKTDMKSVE

[10] = molecular target: NACHT, LRR and PYD domains-containing protein 3 (Mus musculus) (UniProt Q8R4B8); assay: Inhibition of NLRP3 inflammasome activation in LPS-primed mouse J774.A1 cells assessed as inhibition of IL-1 beta release in supernatant preincubated for 1 hr followed by nigericin stimulation measured after 1 hr by Western blot analysis; format: cell-based; conditions: dose 7.5-60 nM, time 2.0 hrs, DDE = dose-dependent effect
[11] = molecular target: NACHT, LRR and PYD domains-containing protein 3 (Mus musculus) (UniProt Q8R4B8); assay: Inhibition of NLRP3 inflammasome activation in LPS-stimulated mouse J774.A1 cells assessed as increase in polyubiquitinated NLRP3 preincubated for 1 hr followed by nigericin stimulation measured after 1 hr by immunoblot analysis; format: cell-based; conditions: dose 7.5-60 nM, time 2.0 hrs, DDE = dose-dependent effect
[12] = molecular target: NACHT, LRR and PYD domains-containing protein 3 (Mus musculus) (UniProt Q8R4B8); assay: Inhibition of NLRP3 inflammasome activation in LPS-stimulated mouse J774.A1 cells assessed as increase in c-Cbl expression at 7.5 to 60 nM preincubated for 1 hr followed by nigericin stimulation measured after 1 hr by immunoblot analysis; format: cell-based; conditions: dose 7.5-60 nM, time 2.0 hrs
[13] = molecular target: NACHT, LRR and PYD domains-containing protein 3 (Mus musculus) (UniProt Q8R4B8); assay: Inhibition of NLRP3 inflammasome activation in LPS-stimulated mouse J774.A1 cells assessed as increase in Cbl-b expression at 30 to 100 nM preincubated for 1 hr followed by nigericin stimulation measured after 1 hr by immunoblot analysis; format: cell-based; conditions: dose 30-100 nM, time 2.0 hrs
[14] = molecular target: NACHT, LRR and PYD domains-containing protein 3 (Mus musculus) (UniProt Q8R4B8); assay: Inhibition of NLRP3 inflammasome activation in LPS/nigericin stimulated mouse BMDM cells assessed as […] in ASC speck formation at 15 to 60 nM preincubated for 1 hr followed by LPS/nigericin stimulation by DAPI staining based immunofluorescence assay; format: cell-based; conditions: dose 15-60 nM
J774.A1 [15] = assay: Inhibition of NF-kappaB in LPS treated mouse J774.A1 cells assessed as reduction in p65 level at 60 nM incubated for 1 hr followed by LPS stimulation measured after 5 hrs by Western blot analysis; format: cell-based; conditions: time 6.0 hrs
J774.A1 [16] = assay: Inhibition of NF-kappaB in LPS treated mouse J774.A1 cells assessed as reduction in phosphorylated p65 level at 60 nM incubated for 1 hr followed by LPS stimulation measured after 5 hrs by Western blot analysis; format: cell-based; conditions: time 6.0 hrs
J774.A1 [17] = assay: Inhibition of NF-kappaB in LPS treated mouse J774.A1 cells assessed as reduction in TNFalpha level at 7.5 to 60 nM incubated for 1 hr followed by LPS stimulation measured after 5 hrs by Western blot analysis; format: cell-based; conditions: dose 7.5-60 nM, time 6.0 hrs
[18] = Tmax in Sprague-Dawley rat at 1 mg/kg, po measured upto 24 hrs by liquid chromatography tandem mass spectrometry; format: ADME, organism-based; conditions: in vivo
[19] = Cmax in Sprague-Dawley rat at 0.5 mg/kg, iv measured upto 24 hrs by liquid chromatography tandem mass spectrometry; format: ADME, organism-based; set-up: time < 24 hrs, dose 0.5 mg/kg, route iv; conditions: in vivo
[20] = AUC (0 to infinity) in Sprague-Dawley rat at 0.5 mg/kg, iv measured upto 24 hrs by liquid chromatography tandem mass spectrometry; format: ADME, organism-based; set-up: time < 24 hrs, dose 0.5 mg/kg, route iv; conditions: in vivo
[21] = AUC (0 to infinity) in Sprague-Dawley rat at 1 mg/kg, po measured upto 24 hrs by liquid chromatography tandem mass spectrometry; format: ADME, organism-based; set-up: dose 1 mg/kg, time < 24 hrs, route po; conditions: in vivo
[22] = Clearance in Sprague-Dawley rat at 0.5 mg/kg, iv measured upto 24 hrs by liquid chromatography tandem mass spectrometry; format: ADME, organism-based; conditions: in vivo
[23] = Oral bioavailability in Sprague-Dawley rat at 1 mg/kg measured upto 24 hrs by liquid chromatography tandem mass spectrometry; format: ADME, organism-based; conditions: in vivo
Mus musculus [24] = assay: Protection against DSS-induced acute colitis in C57BL/6 mouse model assessed as improvement in goblet cell depletion at 0.125 to 0.5 mg/kg, po administered for 10 days by Hematoxylin and eosin staining based analysis; format: functional, organism-based; conditions: dose 0.125-0.5 mg/kg, time 10.0 day
Mus musculus [25] = assay: Protection against DSS-induced acute colitis in C57BL/6 mouse model assessed as improvement in loss of crypt architecture at 0.125 to 0.5 mg/kg, po administered for 10 days by Hematoxylin and eosin staining based analysis; format: functional, organism-based; conditions: dose 0.125-0.5 mg/kg, time 10.0 day
Mus musculus [26] = assay: Protection against DSS-induced C57BL/6 mouse ulcerative colitis model assessed as reduction in NLRP3 level in colon at 0.125 to 0.5 mg/kg, po by Western blot analysis; format: functional, organism-based; conditions: dose 0.125-0.5 mg/kg

CC(C)C[C@H](NC(=O)[C@H](Cc1ccccc1)NC(=O)c1c(F)cccc1F)B(O)O
Activity (Mus musculus [1]): Active
Activity (Mus musculus [2]): Active
Activity (Mus musculus [3]): Active
inhibition [4]: Active
IC50 at 24 h [5]: < 79.4 nM
Activity (HEK293): Non-Toxic
inhibition [6]: Dde
inhibition [7]: Active
inhibition [8]: Active
inhibition [9]: Active
inhibition [10]: Dde
Activity [11]: Dde
Activity [12]: Active
Activity [13]: Active
inhibition [14]: Active
inhibition (J774.A1 [15]): Active
inhibition (J774.A1 [16]): Active
inhibition (J774.A1 [17]): Active
Tmax [18]: 15 min
Cmax [19]: 377 ng/mL
AUC [20]: 448.8 ng·h/mL
AUC [21]: 489.2 ng·h/mL
clearance [22]: 18.8 mL/min/kg
bioavailability [23]: 48.1%
Activity (Mus musculus [24]): Active
Activity (Mus musculus [25]): Active
Activity (Mus musculus [26]): Active
